These are literature values, as cited in patent publication US7842730B2, “Medical emulsion of perfluororganic compounds and method for the production thereof” (priority 2004, dated 2010).

For data set [1] the following is noted: for Critical solution temperature, (Tcritical): Table 3; for Tcritical (critical solution temperature in hexane): Table 1.
The conditions of data set [2]: for Vapor pressure: 37° C., Table 3; for P, vapor pressure: 37°.
The conditions of data set [3]: 37° C.

As for `FC(F)(F)C(F)(F)C(F)(F)C(F)(F)C(F)(F)C(F)(F)C(F)(F)C(F)(F)Br` [PFOB, perfluorooctylbromide], the “t1/2 (elimination from the organism)” value is reported as approximately 4 days. The “Critical solution temperature, (Tcritical)” value in data set [1] was −20 °C. Moreover, the Vapor pressure in data set [2] is on record as 10.5 mm QS. Also, the Oxygen solubility in data set [3] was 53 ml/100 ml (vol.-%).
With `FC1(F)C(F)(F)C(F)(F)C2(F)C(F)(F)C(F)(F)C(F)(F)C(F)(F)C2(F)C1(F)F` (stereo not drawn) [PFD, perfluorodecaline], the “t1/2 (elimination from the organism)” value is approximately 7 days. Also, in data set [1], the Tcritical (critical solution temperature in hexane) is 22 °C and the “Critical solution temperature, (Tcritical)” value was 22 °C. Also, in data set [2], the “P, vapor pressure” value was 12 mm QS and the Vapor pressure was 12.7 mm QS. In addition, in data set [3], the Oxygen solubility is 40 ml/100 ml (vol.-%).
Regarding `C1CCC2CCCC2C1` (stereo not drawn) [bicyclo[4.3.0]nonane], the Tcritical (critical solution temperature in hexane) in data set [1] is 13 °C. Besides, in data set [2], the “P, vapor pressure” value is given as 33 mm QS.
Turning to `CCCCCCOCCCCCC` [dihexylether], the Tcritical (critical solution temperature in hexane) in data set [1] is 59 °C. In addition, the “P, vapor pressure” value in data set [2] is 2 mm QS.
Consider `FC(F)(F)C(F)(F)C(F)(F)C(F)(F)C(F)(F)C(F)(F)C(F)(F)C(F)(F)C(F)(F)C(F)(F)Br` [PFDB, Perfluorodecylbromide], for which the “Critical solution temperature, (Tcritical)” value in data set [1] was 7 °C. Besides, the Vapor pressure in data set [2] is listed as 1.5 mm QS.
`FC(F)(F)C(F)(F)C(F)(F)N(C(F)(F)C(F)(F)C(F)(F)F)C(F)(F)C(F)(F)C(F)(F)F` [PFTPA, perfluorotripropylamine]: in data set [1], the Tcritical (critical solution temperature in hexane) is 43 °C and the “Critical solution temperature, (Tcritical)” value was 44 °C. In data set [2], the “P, vapor pressure” value was 17 mm QS and the Vapor pressure was 18.0 mm QS. Further, in data set [3], the Oxygen solubility was 45 ml/100 ml (vol.-%).
As for `CCCN1CCCCC1C` (stereo not drawn) [1-propyl-2-methylpiperidine], in data set [1], the Tcritical (critical solution temperature in hexane) is 35 °C. The “P, vapor pressure” value in data set [2] is 19 mm QS.
As to “perfluoromethylcyclohexylpiperidine [PFMHP]”, in data set [1], the Tcritical (critical solution temperature in hexane) is 38 °C and the “Critical solution temperature, (Tcritical)” value was 40 °C. In addition, in data set [2], the “P, vapor pressure” value is recorded as 1 mm QS and the Vapor pressure is listed as 2.0 mm QS. Besides, the Oxygen solubility in data set [3] is 40 ml/100 ml (vol.-%).
For the compound `C1CC2CCCC3CCC(C1)C23` (stereo not drawn) [decahydroacenaphthene], the Tcritical (critical solution temperature in hexane) in data set [1] was 24 °C. In addition, the “P, vapor pressure” value in data set [2] was 2 mm QS.
